How the values were obtained:
[1] = tested on: conjunctival epithelium on vascularized corneas; test: Epithelial differentiation on photothrombosed corneas (goblet cells, cytology, histology); format: in vivo, New Zealand albino rabbit
Method: In order to study the goblet cell density on the vascularized corneas before and after photothrombosis, corneal flat-mounts were prepared and stained according to usual methods (Tseng et al., Invest. Opthalmol. Vis. Sci., 25:1168-76, 1984). The pattern of goblet cell disappearance was then analyzed and specifically correlated with the treated area.
The epithelial phenotype of the control and treated corneas was then studied by impression cytology (Tseng, Ophthalmology, 92:728-33, 1985) and routine histology using hematoxylin and PAS. In addition, immunofluorescent stainings of the frozen sections using a previously developed anti-rabbit ocular mucin monoclonal antibody [anti-ROM] was performed to study mucin expression.

middle cerebral artery = test: Argon laser photothrombotic occlusion of middle cerebral artery (Example 1); format: in vivo, rat (male Wistar)
Excerpt: (§1) Male Wistar rats, each weighing 280 to 330 gm, were anesthetized with 1.5% halothane and maintained on a 70:30 mixture of nitrous oxide and oxygen delivered by a closely fitting Mylar face mask (Watson et al., J. Neurosurg., 66:748-754, 1987, the disclosure of which is hereby incorporated by reference and relied upon). After separation of the temporal musculature, the middle cerebral artery was exposed via a small subtemporal craniectomy produced by a high-speed drill under an operating microscope; the dura was left intact. The common carotid arteries were exposed bilaterally by a midline incision extending from the mental process to the sternal notch; the sternocleidomastoid muscle was then retracted laterally to expose the underlying artery. Bleeding from the operative site was controlled with pressure and Gelfoam. The animal was then prepared for irradiation by filling the surgical cavity with saline, just submerging the exposed blood vessel. The saline solution was kept clear by frequent suction and irrigation. The femoral arteries were exposed by bilateral inguinal incisions and were prepared for irradiation in a fashion similar to that described above.
Thrombus development and subsequent occlusion of the middle cerebral artery were easily observed during irradiation owing to wall transparency. The irradiated segment emitted a bright orange fluorescence (as viewed through an interference filter which rejected the 514.5 nm argon line); this was attributed to rose bengal uptake by red blood cell membranes and binding to plasma proteins such as albumin. As the irradiation proceeded, the fluorescence became yellowish and less intense owing to the accumulation of platelets and exclusion of red blood cells from the developing thrombus. Complete occlusion was signaled by exclusion of red blood cells from the arterial segments both distal and proximal to the irradiated portion, leaving a single colorless segment 7 to 10 arterial diameters in length.
(§2) Ultrastructural studies were carried out at either 30 minutes or 7 days following irradiation. Animals were perfused transcardially with 0.9% sodium chloride solution followed by 2% paraformaldehyde and 2.5% glutaraldehyde in a 0.1 M sodium phosphate buffer. Perfusion pressure was monitored throughout the procedure and was maintained at 100 mm Hg. After perfusion fixation, the femoral and common carotid arteries were isolated and placed in fixative for an additional 2 hours. To isolate the middle cerebral artery, the brain was first removed from the cranial vault and placed in fixative for a 2-hour period. Next, the whole brain was placed in phosphate-buffered 1% osmium tetroxide for 2 minutes.
The blood vessels were then postfixed in Millonig's phosphate-buffered 1% osmium tetroxide for 1 hour. Specimens chosen for transmission electron microscopy were dehydrated in ethanol and propylene oxide and embedded in Poly-Bed 812 as previously described (Dietrich et al., J Neuropathol. Exp. Neurol., 43:72-83, 1984). Sections 1 μm thick were cut with glass knives on a Sorvall ultra-microtome and stained with toluidine blue. To characterize the occlusive material more completely, ultra-thin sections stained with uranyl acetate and lead citrate were examined with a Zeiss EM-10C electron microscope. The blood vessels chosen for scanning electron microscopy analysis were examined under a dissecting microscope and cut longitudinally with a scalpel blade to expose the luminal surface. The blood vessels were then dehydrated in graded ethanols and placed in Freon. The tissue was critical-point dried, coated with gold, and examined and photographed with a JEOL JSM-35C scanning electron microscope.

femoral artery = test: Argon laser photothrombotic occlusion of femoral artery (Example 1); format: in vivo, rat (male Wistar)
Excerpt: as §1
As assessed by observation of rose bengal fluorescence, thrombus development in the common carotid or femoral arteries followed a course similar to that observed in the middle cerebral artery, except that the thrombus appeared as a […] as viewed through the blood vessel wall. Intense scattering of the incident laser light was also noted at about the time that arterial pulsations at the level of irradiation ceased.
as §2

[2] = in vivo; cited from earlier work

Structure (SMILES): O=C([O-])c1c(Cl)c(Cl)c(Cl)c(Cl)c1-c1c2cc(I)c(=O)c(I)c-2oc2c(I)c([O-])c(I)cc12.[Na+].[Na+] [rose bengal]
- goblet cells on the cornea ([1]; four weeks): no goblet cells were noted
- histology of epithelium ([1]; four weeks): stratified cornea-like epithelium
- goblet cell density, cytology ([1]; one week): decreased goblet cell density
- epithelial N/C ratio ([1]; one week, impression cytology): slight increase
- goblet cell density ([1]; treated areas, four days): remarkably decreased
- length of colorless occluded segment (middle cerebral artery; complete occlusion): 7 to 10 arterial diameters
- recanalization on saline bolus (middle cerebral artery; five minutes after completion of irradiation): no recanalization was observed
- energy fluence (middle cerebral artery; rat, in vivo): ~3.5 kJ/sq cm
- total energy deposited (middle cerebral artery; rat, in vivo): approximately 1 J
- thrombus composition (middle cerebral artery; ultrastructural analysis): composed primarily of aggregated platelets
- irradiation time to effect complete occlusion (middle cerebral artery; very low incident intensity): ≤ 3 min
- complete occlusion, irradiation time (femoral artery; 40 mg/kg i.v., 514.5 nm argon laser): ≤ 3 min
- energy fluence at occlusion (femoral artery; 514.5 nm argon laser): about 35 kJ/sq cm
- total energy deposited at occlusion (femoral artery; 514.5 nm argon laser): 140 to 180 joules (J)
- occlusion, irradiation time (femoral artery; one-half the standard dose (20 mg/kg), two rats): ≤ 4 min
- disappearance through the feces [2]: 3 days
- pH of isotonic saline solution (15 mg/ml): 6.80
- highest concentration which could be achieved practically (normal saline): 100 mg/mL
